{"source": "patent US9938335B2", "about": "“Glucagon and GLP-1 co-agonist compounds” (Eli Lilly and Company, priority 2015, dated 2018)", "key": {"DIO mice (C57BL/6) [1]": {"test_system": "DIO mice (C57BL/6)", "assay": "Glycemic control in DIO mice", "assay_type": "in vivo, mouse", "settings": "for Blood glucose (mg/dL) post-injection, Mean: male DIO mice, 25 nmol/kg sc once", "method": "Five to six months old male DIO mice (C57BL/6) from Taconic Biosciences are used in this study. Animals are individually housed in a temperature-controlled (24° C.) facility with a 12 hour light/dark cycle (lights on 6:00), and free access to food and water. After two weeks acclimation to the facility, the mice are randomized to treatment groups (n=7/group) based on their body weight and blood glucose. Mice are injected subcutaneously once with vehicle or compounds (25 nmol/kg). Blood glucose is monitored 2 and 8 hours post-injection and then once a day at 08:00 for 4 days. OGTTs are performed at 44 and 78 hours post the peptide injection. Statistics are analyzed using ANOVA with Dunnett's comparison by JMP 6. Significance is denoted at p≤0.05 vs vehicle."}, "DIO mice (C57BL/6) [2]": {"test_system": "DIO mice (C57BL/6)", "assay": "Chronic treatment in DIO mice (body weight, fat, food intake)", "assay_type": "in vivo, mouse", "method": "The effects on food intake and body weight/fat are evaluated in DIO mice. Five to six months old DIO mice (C57BL/6) from Taconic Biosciences are used in this study. Animals are individually housed in a temperature-controlled (24° C.) facility with a 12 hour light/dark cycle (lights on 6:00), and free access to food and water. The mice are acclimated to the facility for two weeks. The day before the study start, fat mass is measured by nuclear magnetic resonance (NMR) using an Echo Medical System (Houston, Tex.) instrument. The mice are randomized to treatment groups (N=7/group) based on body weight and fat mass so each group had similar starting mean body weight and fat mass. […] SC injections are made on Day 1, 4, 7, 10, and 13. Body weight and food intake are measured right before each injection throughout the study. Percent changes in body weight are calculated as follows: […]\nAt the completion of the study, total fat mass is measured again by NMR. Statistics are analyzed using ANOVA with Dunnett's comparison by JMP 6. Significance is denoted at p≤0.05 vs. vehicle."}, "hGLP-1-R [3]": {"target": "T1, hGLP-1-R (Homo sapiens, UniProt P43220)", "T1 sequence (P43220 24-463)": "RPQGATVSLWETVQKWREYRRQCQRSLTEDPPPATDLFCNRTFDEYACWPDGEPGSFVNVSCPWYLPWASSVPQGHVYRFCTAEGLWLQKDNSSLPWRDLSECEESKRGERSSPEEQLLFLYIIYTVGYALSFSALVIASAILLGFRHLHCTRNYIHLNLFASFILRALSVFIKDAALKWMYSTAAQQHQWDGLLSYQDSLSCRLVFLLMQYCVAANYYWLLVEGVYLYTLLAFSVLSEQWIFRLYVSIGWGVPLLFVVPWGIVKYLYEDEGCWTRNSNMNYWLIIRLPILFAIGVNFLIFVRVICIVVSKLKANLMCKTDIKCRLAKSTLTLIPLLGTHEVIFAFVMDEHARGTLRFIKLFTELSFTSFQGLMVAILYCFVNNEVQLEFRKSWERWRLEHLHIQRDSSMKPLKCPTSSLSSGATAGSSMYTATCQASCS", "assay": "hGLP-1R Binding Assay (SPA radioligand competition, 293HEK membranes)", "set-up": "expressed in transfected cells; host or cells: 293HEK, stably transfected with plasmid phD, Hygromycin-selected; crude plasma membranes", "settings": "read-out: Ki, nM ± SEM at the hGLP-1-R"}, "Human Gcg-R": {"target": "T2, Human Gcg-R (Homo sapiens, UniProt P47871)", "T2 construct": "expressed in transfected cells; host or cells: HEK-293 clonal cell line over-expressing the receptor", "T2 sequence (P47871 26-477)": "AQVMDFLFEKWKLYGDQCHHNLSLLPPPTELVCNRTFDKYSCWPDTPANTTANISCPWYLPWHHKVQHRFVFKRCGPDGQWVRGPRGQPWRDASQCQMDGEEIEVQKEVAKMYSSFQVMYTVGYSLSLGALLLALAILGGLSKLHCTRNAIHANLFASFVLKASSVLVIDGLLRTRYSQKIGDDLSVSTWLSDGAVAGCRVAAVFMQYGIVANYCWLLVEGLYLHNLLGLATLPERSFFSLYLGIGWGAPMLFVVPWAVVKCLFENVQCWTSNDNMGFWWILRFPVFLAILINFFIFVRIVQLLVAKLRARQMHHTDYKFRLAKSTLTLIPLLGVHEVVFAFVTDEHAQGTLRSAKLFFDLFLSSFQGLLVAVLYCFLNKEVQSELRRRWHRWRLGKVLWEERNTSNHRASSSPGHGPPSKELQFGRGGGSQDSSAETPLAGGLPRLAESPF", "assay": "Functional hGcg-R assay (cAMP HTRF, HEK-293 clonal cell line)", "assay_type": "cell-based", "experimental": "(§1) After a 60 minute incubation at room temperature, the resulting increase in intracellular cAMP (adenosine 3′,5′-cyclic monophosphate) is quantitatively determined using the CisBio cAMP Dynamic 2 HTRF Assay Kit (62AM4PEJ). cAMP levels within the cell are detected by adding the cAMP-d2 conjugate in cell lysis buffer (20 μl) followed by the antibody anti-cAMP-Eu^3+-Cryptate, also in cell lysis buffer (20 μl).\n(§2) A relative EC50 value and percent top (Emax) are derived by non-linear regression analysis using the percent maximal response vs. the concentration of peptide added, fitted to a four-parameter logistic equation (Genedata Screener®).\n(§3) Means for EC50 are expressed as Geometric means±standard error of the mean (SEM) with the number of replicates (n) indicated in parenthesis. Means for Emax are expressed as the arithmetic mean±standard error. ND signifies that agonist activity was not detected."}, "[4]": {"assay": "Viscosity (Rheosense mVroc Viscometer)", "assay_type": "physicochemical", "settings": "approximately 10 mg/mL peptide in 10 mM Tris + 3 mg/mL m-cresol at pH 8.0; 25° C.; shear rate 1934 s^−1", "method": "Viscosity of compounds of the present invention is measured in a Rheosense mVroc Viscometer with the following settings:\n(a) Syringe size: 500 μL syringe\n(b) Flow Rate: 100 μL/min flow rate\n(c) Average Temperature: 25° C.\n(d) Shear Rate: 1934 s^−1\nDry powder (compound) is weighed out, dissolved in water as a cloudy precipitate, and titrated to approximately pH 8.0 with 1N NaOH. The solution is sonicated and swirled by hand until peptide is in solution. Samples are sterile filtered (0.22 μm PVDF filters). Samples are then analyzed by UV-Vis to assess stock solution concentrations. Solutions are diluted to final concentration using 3× m-cresol in 10 mM Tris pH 8.0 buffer to final concentrations of approximately 10 mg/mL peptide by weight in 10 mM Tris+3 mg/mL m-cresol at pH 8.0. Samples were filtered through 0.22 μm filters immediately prior to viscosity analysis. 25 μL of sample are removed to verify concentration by RP-HPLC before and after analysis.\nWater and buffer control samples are measured before and after each sample is analyzed. The instrument is washed with buffer (3×) in between analysis of each sample. The samples are loaded into individual syringes and analyzed. The first measurement is not included in the final calculation to allow for equilibration with the system. Samples are then analyzed in triplicate (n=3).\nThe viscosity of Compounds 1-4 was measured essentially as described in this assay."}, "[5]": {"assay": "Solubility (RP-HPLC and HPLC-SEC, 1 week at 4° C.)", "assay_type": "physicochemical", "method": "Solubility of compounds of the present invention is measured in an Agilent 1100 HPLC, an Agilent 1200 HPLC and a Nanodrop 2000. The following HPLC columns are used:\n(a) RP-HPLC: Waters Symmetry Shield C18, 3.6 um, 4.6×100 mm\n(b) HPLC-SEC: Tosoh Biosciences, TSK2000SWXL […]\nAll peptide concentrations are made at 10 mg/mL in the following:\n(a) 10 mM Tris pH 8.0+3 mg/mL m-cresol\n(b) 10 mM Tris pH 8.0+3 mg/mL m-cresol+150 mM NaCl\n(c) 10 mM Tris pH 8.0+3 mg/mL m-cresol+0.02% Tween-20\n5 mL of 10 mg/mL peptide dissolved in 10 mM Tris at pH 8.0 is concentrated to approximately 20 mg/mL using Amicon-ultra 3 kDa MWCO devices. The solution is filtered using Millivex 0.22 μM filters (PVDF membrane) and the final concentration is measured by the NanoDrop spectrometer. This stock solution is used to formulate to the final conditions stated above using 3× m-cresol, 10× NaCl, and 100× Tween-20 stock solutions. A 10 mg/mL PBS solution is also prepared by dissolving directly at 5 mg/mL and concentrating using Amicon-ultra 3 kDa MWCO devices.\nEach solution is placed in a refrigerator at 4° C. for 1 week, with analysis by RP-HPLC to assess concentration and HPLC-SEC to assess HMW species formation. Analyses completed at T-0 week and T-1 week.\nThe solubility of Compounds 1-4 was measured essentially as described in this assay."}, "hGLP-1-R [6]": {"target": "T1, hGLP-1-R", "assay": "Functional hGLP-1-R assay (cAMP HTRF, HEK-293 clonal cell line)", "assay_type": "cell-based", "set-up": "expressed in transfected cells; host or cells: HEK-293 clonal cell line over-expressing the receptor", "experimental": "as §1, §2, §3"}, "hGcg-R": {"target": "hGcg-R (Homo sapiens, UniProt P47871)", "sequence (P47871 26-477)": "as above", "assay": "hGcg-R Binding Assay (SPA radioligand competition, 293HEK membranes)", "settings": "read-out: Ki, nM ± SEM at the hGcg-R"}, "[7]": {"settings": "15 nmol/kg sc every three days for 15 days"}, "[8]": {"settings": "30 nmol/kg sc every three days for 15 days"}}, "note": "Where two headings read alike, the source gives them in different places. Marks after values point to notes of the source that are not given here. Starred links: 1 amine or outer side, 2 acyl side, 3 side chain; linkers in the order of their positions; H or OH if unused. Non-standard residues stand in square brackets, D forms with d. Residues, ends and D or L forms follow the SMILES beside them. Groups on a side chain read outwards from the residue. *: point of attachment. C20 diacid = O=C(O)CCCCCCCCCCCCCCCCCCC(=O)*; γGlu = O=C(O)[C@H](CCC(=O)[*:2])N[*:1]; AEEA = NCCOCCOCC(=O)O; Aib = CC(C)(N)C(=O)O", "data": [{"smiles": "CC(C)C[C@H](NC(=O)[C@H](CC(C)C)NC(=O)[C@H](Cc1c[nH]c2ccccc12)NC(=O)[C@H](CCC(=O)O)NC(=O)[C@@H](NC(=O)[C@H](Cc1ccccc1)NC(=O)[C@H](CCC(=O)O)NC(=O)[C@H](CCCCNC(=O)COCCOCCNC(=O)COCCOCCNC(=O)CC[C@H](NC(=O)CC[C@H](NC(=O)CCCCCCCCCCCCCCCCCCC(=O)O)C(=O)O)C(=O)O)NC(=O)[C@H](C)NC(=O)[C@H](CCCCN)NC(=O)[C@H](CCCCN)NC(=O)[C@H](CCC(=O)O)NC(=O)[C@H](CC(=O)O)NC(=O)[C@H](CC(C)C)NC(=O)[C@H](Cc1ccc(O)cc1)NC(=O)[C@H](CCCCN)NC(=O)[C@H](CO)NC(=O)[C@H](Cc1ccc(O)cc1)NC(=O)[C@H](CC(=O)O)NC(=O)[C@H](CO)NC(=O)[C@@H](NC(=O)[C@H](Cc1ccccc1)NC(=O)[C@@H](NC(=O)CNC(=O)[C@H](CCC(N)=O)NC(=O)C(C)(C)NC(=O)[C@@H](N)Cc1c[nH]cn1)[C@@H](C)O)[C@@H](C)O)C(C)C)C(=O)N[C@@H](CO)C(=O)NCC(=O)NCC(=O)N1CCC[C@H]1C(=O)N[C@@H](CO)C(=O)N[C@@H](CO)C(=O)NCC(N)=O", "note": "[Compound 4] (H-H[Aib]QGTFTSDYSKYLDEKKAK([AEEA-AEEA-γGlu-γGlu-C20 diacid])EFVEWLLSGGPSSG-NH2; N-terminus assumed)", "values": [{"measurement": "44 hours Glucose AUC (% of Vehicle)", "setting": "DIO mice (C57BL/6) [1]; OGTT 44 hours post-injection, 25 nmol/kg sc", "value": "41* % of Vehicle"}, {"measurement": "78 hours Glucose AUC (% of Vehicle)", "setting": "DIO mice (C57BL/6) [1]; OGTT 78 hours post-injection, 25 nmol/kg sc", "value": "60* % of Vehicle"}, {"measurement": "glucose excursions post an oral glucose challenge", "setting": "DIO mice (C57BL/6) [1]; OGTTs at 44 and 78 hours post injection, 25 nmol/kg", "value": "lower glucose excursions post an oral glucose challenge at both time points"}, {"measurement": "Blood glucose (mg/dL) post-injection, Mean", "setting": "DIO mice (C57BL/6) [1]; 2 hours post-injection", "value": 110.2, "unit": "mg/dL"}, {"measurement": "Blood glucose (mg/dL) post-injection, Mean", "setting": "DIO mice (C57BL/6) [1]; 8 hours post-injection", "value": 91.5, "unit": "mg/dL"}, {"measurement": "Blood glucose (mg/dL) post-injection, Mean", "setting": "DIO mice (C57BL/6) [1]; 24 hours post-injection", "value": 87.4, "unit": "mg/dL"}, {"measurement": "Blood glucose (mg/dL) post-injection, Mean", "setting": "DIO mice (C57BL/6) [1]; 48 hours post-injection", "value": 102.9, "unit": "mg/dL"}, {"measurement": "Blood glucose (mg/dL) post-injection, Mean", "setting": "DIO mice (C57BL/6) [1]; 72 hours post-injection", "value": 115.7, "unit": "mg/dL"}, {"measurement": "Blood glucose (mg/dL) post-injection, Mean", "setting": "DIO mice (C57BL/6) [1]; 96 hours post-injection", "value": 104.6, "unit": "mg/dL"}, {"measurement": "Body Fat (% change vs. vehicle from Day 1)", "setting": "DIO mice (C57BL/6) [2]; [7]", "value": "−26* %"}, {"measurement": "Body Weight (% change vs. vehicle from Day 1)", "setting": "DIO mice (C57BL/6) [2]; [7]", "value": "−15* %"}, {"measurement": "Body Fat (% change vs. vehicle from Day 1)", "setting": "DIO mice (C57BL/6) [2]; [8]", "value": "−69* %"}, {"measurement": "Body Weight (% change vs. vehicle from Day 1)", "setting": "DIO mice (C57BL/6) [2]; [8]", "value": "−39* %"}, {"measurement": "Ki", "setting": "hGLP-1-R [3]", "value": "20.2 ± 8.2", "unit": "nM"}, {"measurement": "Emax", "setting": "Human Gcg-R; HEK293", "value": "116 ± 4", "unit": "%"}, {"measurement": "EC50", "setting": "Human Gcg-R; cAMP, 60 minute incubation, 0.25% FBS, 0.05% BSA, geometric mean, read-out: Human Gcg-R EC50, nM ± SEM, (n)", "value": "68.8 ± 7.2", "unit": "nM"}, {"measurement": "500 μL syringe Viscosity", "setting": "[4]", "value": "1.05 cP or mPa-s"}, {"measurement": "solubility at 1 week", "setting": "[5]; 10 mM Tris pH 8.0 + 3 mg/mL m-cresol + 0.02% Tween-20, Tris pH 8 + 3 mg/mL m-cresol + 0.02% Tween-20", "value": 10000, "unit": "µg/mL"}, {"measurement": "solubility at 1 week", "setting": "[5]; 10 mM Tris pH 8.0 + 3 mg/mL m-cresol + 150 mM NaCl, Tris pH 8 + 3 mg/mL m-cresol + 150 mm NaCl", "value": 10000, "unit": "µg/mL"}, {"measurement": "solubility at 1 week", "setting": "[5]; 10 mM Tris pH 8.0 + 3 mg/mL m-cresol, Tris pH 8 + 3 mg/mL m-cresol", "value": 10000, "unit": "µg/mL"}, {"measurement": "HMW species formation by SEC-HPLC", "setting": "[5]; 1 week at 4° C.", "value": "No observed HMW species formation by SEC-HPLC;"}, {"measurement": "solubility at 1 week", "setting": "[5]; PBS pH 7.4, pH 7.4, read-out: solubility in PBS, pH 7.4", "value": 10000, "unit": "µg/mL"}, {"measurement": "visible precipitation or phase separation", "setting": "[5]; after 1 week storage at 4° C.", "value": "No visible precipitation or phase separation observed after 1 week"}, {"measurement": "Emax", "setting": "hGLP-1-R [6]; HEK293", "value": "85.2 ± 6", "unit": "%"}, {"measurement": "EC50", "setting": "hGLP-1-R [6]; cAMP, 60 minute incubation, 0.25% FBS, 0.05% BSA, geometric mean, read-out: Human GLP-1-R EC50, nM ± SEM (n)", "value": "106 ± 18", "unit": "nM"}, {"measurement": "Ki", "setting": "hGcg-R", "value": "27.4 ± 3.3", "unit": "nM"}]}]}
